According to US7709509B2, “Oxadiazolones and derivatives thereof as peroxisome proliferator-activated receptor (PPAR) delta agonists” (Sanofi-Aventis Deutschland GmbH, priority 2004, dated 2010):
Where two headings read alike, the source gives them in different places.

Tests used:
human PPARalpha = target: T1, human PPARalpha (Homo sapiens, UniProt Q07869); assay: Cellular PPARalpha assay (HEK PPARalpha reporter cell line, luciferase); type: cell-based; conditions: GR-GAL4-humanPPARalpha-LBD
T1 construct: human PPARalpha receptor (amino acids S167-Y468); expressed in transfected cells; host or cells: HEK cells, stably transfected (pcDNA3, CMV promoter)
T1 sequence (Q07869 167-468): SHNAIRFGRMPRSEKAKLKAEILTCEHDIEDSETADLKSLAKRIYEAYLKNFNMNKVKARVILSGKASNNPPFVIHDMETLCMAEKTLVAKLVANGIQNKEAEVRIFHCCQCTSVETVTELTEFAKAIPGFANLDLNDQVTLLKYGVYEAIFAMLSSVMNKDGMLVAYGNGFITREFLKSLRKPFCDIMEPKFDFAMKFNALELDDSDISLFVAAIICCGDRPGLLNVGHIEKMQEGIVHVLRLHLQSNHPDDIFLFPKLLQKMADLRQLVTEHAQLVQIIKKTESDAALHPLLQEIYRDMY
Method: Determination of EC50 Values of PPAR Agonists in the Cellular PPARalpha Assay
(§1) The potency of substances which bind to human PPARalpha and activate it in an agonistic manner is analyzed using a stably transfected HEK cell line (HEK=human embryo kidney) which is referred to here as PPARalpha reporter cell line. It contains two genetic elements, a luciferase reporter element (pdeltaM-GAL4-Luc-Zeo) and a PPARalpha fusion protein (GR-GAL4-humanPPARalpha-LBD) which mediates expression of the luciferase reporter element depending on a PPARalpha ligand. The stably and constitutively expressed fusion protein GR-GAL4-humanPPARalpha-LBD binds in the cell nucleus of the PPARalpha reporter cell line via the GAL4 protein portion to the GAL4 DNA binding motifs 5′-upstream of the luciferase reporter element which is stably integrated in the genome of the cell line. There is only weak expression of the luciferase reporter gene in the absence of a PPARalpha ligand if fatty acid-depleted fetal calf serum (cs-FCS) is used in the assay. PPARalpha ligands bind and activate the PPARalpha fusion protein and thereby stimulate the expression of the luciferase reporter gene. The luciferase which is formed can be detected by means of chemiluminescence via an appropriate substrate.
The PPARalpha reporter cell line was prepared in two stages. Firstly, the luciferase reporter element was constructed and stably transfected into HEK cells. For this purpose, five binding sites of the yeast transcription factor GAL4 (Accession # AF264724) were cloned in 5′-upstream of a 68 bp-long minimal MMTV promoter (Accession # V01175). The minimal MMTV promoter section contains a CCAAT box and a TATA element in order to enable efficient transcription by RNA polymerase II. The cloning and sequencing of the GAL4-MMTV construct took place in analogy to the description of Sambrook J. et al. (Molecular cloning, Cold Spring Harbor Laboratory Press, 1989). Then the complete Photinus pyralis gene (Accession # M15077) was cloned in 3′-downstream of the GAL4-MMTV element. After sequencing, the luciferase reporter element consisting of five GAL4 binding sites, MMTV promoter and luciferase gene was recloned into a plasmid which confers zeocin resistance in order to obtain the plasmid pdeltaM-GAL4-Luc-Zeo. This vector was transfected into HEK cells in accordance with the statements in Ausubel, F. M. et al. (Current protocols in molecular biology, Vol. 1-3, John Wiley & Sons, Inc., 1995).
In a second step, the PPARalpha fusion protein (GR-GAL4-humanPPARalpha-LBD was introduced into the stable cell clone described. For this purpose, initially the cDNA coding for the N-terminal 76 amino acids of the glucocorticoid receptor (Accession # P04150) was linked to the cDNA section coding for amino acids 1-147 of the yeast transcription factor GAL4 (Accession # P04386). The cDNA of the ligand-binding domain of the human PPARalpha receptor (amino acids S167-Y468; Accession # S74349) was cloned in at the 3′-end of this GR-GAL4 construct. The fusion construct prepared in this way (GR-GAL4-humanPPARalpha-LBD) was recloned into the plasmid pcDNA3 (Invitrogen) in order to enable constitutive expression therein by the cytomegalovirus promoter. This plasmid was linearized with a restriction endonuclease and stably transfected into the previously described cell clone containing the luciferase reporter element. The finished PPARalpha reporter cell line which contains a luciferase reporter element and constitutively expresses the PPARalpha fusion protein (GR-GAL4-human PPARalpha-LBD) was isolated by selection with zeocin (0.5 mg/ml) and G418 (0.5 mg/ml).
The activity of PPARalpha agonists is determined in a 3-day assay, which is described below: […]

human PPARdelta = target: T2, human PPARdelta (Homo sapiens, UniProt Q03181); assay: Cellular PPARdelta assay (HEK PPARdelta reporter cell line, luciferase); type: cell-based; conditions: GR-GAL4-humanPPARdelta-LBD
T2 construct: human PPARdelta receptor (amino acids S139-Y441); expressed in transfected cells; host or cells: HEK cells, stably transfected (pcDNA3, CMV promoter)
T2 sequence (Q03181 139-441): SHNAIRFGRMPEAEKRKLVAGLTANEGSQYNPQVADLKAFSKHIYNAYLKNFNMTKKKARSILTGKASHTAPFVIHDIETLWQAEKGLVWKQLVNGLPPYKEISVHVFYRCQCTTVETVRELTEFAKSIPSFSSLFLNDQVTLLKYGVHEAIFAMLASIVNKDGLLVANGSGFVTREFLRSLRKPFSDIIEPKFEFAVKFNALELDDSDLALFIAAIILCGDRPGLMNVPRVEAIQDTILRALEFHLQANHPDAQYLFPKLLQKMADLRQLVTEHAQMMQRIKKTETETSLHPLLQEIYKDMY
Method: Determination of EC50 Values of PPAR Agonists in the Cellular PPARdelta Assay
as §1, with “PPARdelta” for “PPARalpha”, “In analogy to the assay described for PPARalpha, the PPARdelta reporter cell line also” for “It”, “(GR-GAL4-humanPPARdelta-LBD)” for “(GR-GAL4-humanPPARalpha-LBD)”, “GR-GAL4-humanPPARdelta-LBD” for “GR-GAL4-humanPPARalpha-LBD”, “little” for “weak”, “stimulate” for “stimulate the”
The production of the stable PPARdelta reporter cell line is based on a stable HEK-cell clone which was stably transfected with a luciferase reporter element. This step was already described above in the section “construction of the PPARalpha reporter cell line”. In a second step, the PPARdelta fusion protein (GR-GAL4-humanPPARdelta-LBD was stably introduced into this cell clone. For this purpose, the cDNA coding for the N-terminal 76 amino acids of the glucocorticoid receptor (Accession # P04150) was linked to the cDNA section coding for amino acids 1-147 of the yeast transcription factor GAL4 (Accession # P04386). The cDNA of the ligand-binding domain of the human PPARdelta receptor (amino acids S139-Y441; Accession # L07592) was cloned in at the 3′-end of this GR-GAL4 construct. The fusion construct prepared in this way (GR-GAL4-humanPPARdelta-LBD) was recloned into the plasmid pcDNA3 (Invitrogen) in order to enable constitutive expression by the cytomegalovirus promoter. This plasmid was linearized with a restriction endonuclease and stably transfected into the previously described cell clone containing the luciferase reporter element. The resulting PPARdelta reporter cell line which contains a luciferase reporter element and constitutively expresses the PPARdelta fusion protein (GR-GAL4-human PPARdelta-LBD) was isolated by selection with zeocin (0.5 mg/ml) and G418 (0.5 mg/ml).
The activity of PPARdelta agonists is determined in a 3-day assay in exact analogy to the procedure already described for the PPARalpha reporter cell line except that the PPARdelta reporter cell line and a specific PPARdelta agonist was used as a standard to control test efficacy.

[1] = diabetic animal model; cited from earlier work
[2] = obese, insulin resistant rhesus monkeys; cited from earlier work
[3] = rhesus and cynomolgus monkeys; cited from earlier work
[4] = two weeks clinical trials in healthy volunteers; cited from earlier work

Compound	EC50 (human PPARalpha) [nM]	EC50 (human PPARdelta) [nM]	further results
Cc1nc(-c2ccc(C(F)(F)F)cc2)sc1COc1ccc(-c2noc(=O)[nH]2)c(Cl)c1 [Example 4, 3-{2-Chloro-4-[4-methyl-2-(4-trifluoromethyl-phenyl)-thiazole-5-ylmethoxy]-phenyl}-4H-[1,2,4]oxadiazole-5-one]	1660	56	–
Cc1nc(-c2ccc(C(F)(F)F)cc2)sc1CSc1ccc(-c2noc(=O)[nH]2)cc1 [Example 5, 3-{4-[4-Methyl-2-(4-trifluoromethyl-phenyl)-thiazole-5-ylmethylsulfanyl]-phenyl}-4H-[1,2,4]oxadiazole-5-one]	1330	68	–
CCCCc1nc(-c2ccc(C(F)(F)F)cc2)sc1COc1ccc(Cc2noc(=O)[nH]2)c(Cl)c1 [Example 10, 3-{4-[4-Butyl-2-(4-trifluoromethyl-phenyl)-thiazol-5-ylmethoxy]-2-chloro-benzyl}-4H-[1,2,4]oxadiazol-5-one]	770	11	–
CCCCc1nc(-c2ccc(C(F)(F)F)cc2)sc1COc1cc(F)c(-c2noc(=O)[nH]2)c(F)c1 [Example 13, 3-{4-[4-Butyl-2-(4-trifluoromethyl-phenyl)-thiazol-5-ylmethoxy]-2,6-difluoro-phenyl}-4H-[1,2,4]oxadiazol-5-one]	360	10	–
CCCCc1nc(-c2ccc(C(F)(F)F)cc2)sc1COc1ccc(-c2noc(=O)[nH]2)c(C(F)(F)F)c1 [Example 15, 3-{4-[4-Butyl-2-(4-trifluoromethyl-phenyl)-thiazol-5-ylmethoxy]-2-trifluoromethyl-phenyl}-4H-[1,2,4]oxadiazol-5-one]	150	3	–
CCCCc1nc(-c2ccc(C(F)(F)F)cc2)sc1COc1ccc(-c2noc(=O)[nH]2)c(OC)c1 [Example 18, 3-{4-[4-Butyl-2-(4-trifluoromethyl-phenyl)-thiazol-5-ylmethoxy]-2-methoxy-phenyl}-4H-[1,2,4]oxadiazol-5-one]	> 10000	15	–
O=c1[nH]c(-c2ccc(OCc3sc(-c4ccc(C(F)(F)F)cc4)nc3CCCCO)cc2Cl)no1 [Example 20, 3-{2-Chloro-4-[4-(4-hydroxy-butyl)-2-(4-trifluoromethyl-phenyl)-thiazol-5-ylmethoxy]-phenyl}-4H-[1,2,4]oxadiazol-5-one]	1560	55	–
CCCCc1nc(-c2ccc(C(F)(F)F)cc2)sc1COCc1ccc(-c2noc(=O)[nH]2)c(F)c1 [Example 28, 3-{4-[4-Butyl-2-(4-trifluoromethyl-phenyl)-thiazol-5-ylmethoxymethyl]-2-fluoro-phenyl}-4H-[1,2,4]oxadiazol-5-one]	120	23	–
Cc1oc(-c2ccc(-c3ccccc3)cc2)nc1COc1ccc(-c2noc(=O)[nH]2)c(Cl)c1 [Example 30, 3-[4-(2-Biphenyl-4-yl-5-methyl-oxazol-4-ylmethoxy)-2-chloro-phenyl]-4H-[1,2,4]oxadiazol-5-one]	250	16	–
Cc1sc(-c2ccc(S(F)(F)(F)(F)F)cc2)nc1CCOc1ccc(-c2noc(=O)[nH]2)c(Cl)c1 [Example 32]	320	310	–
COCCOCc1nc(-c2ccc(C(F)(F)F)cc2)sc1COc1ccc(-c2noc(=O)[nH]2)c(Cl)c1 [Example 34, 3-{2-Chloro-4-[4-(2-methoxy-ethoxymethyl)-2-(4-trifluoromethyl-phenyl)-thiazol-5-ylmethoxy]-phenyl}-4H-[1,2,4]oxadiazol-5-one]	230	1	–
O=c1[nH]c(-c2ccc(OCc3sc(-c4ccc(C(F)(F)F)cc4)nc3CCCOCc3ccccc3)cc2Cl)no1 [Example 50, 3-{4-[4-(3-Benzyloxy-propyl)-2-(4-trifluoromethyl-phenyl)-thiazol-5-ylmethoxy]-2-chloro-phenyl}-4H-[1,2,4]oxadiazol-5-one]	420	0.7	–
CCCc1c(OCCCOc2ccc(OCC(=O)O)cc2)ccc(C(C)=O)c1O [Example L-165041]	–	–	plasma cholesterol [1]: raises
Cc1cc(SCc2sc(-c3ccc(C(F)(F)F)cc3)nc2C)ccc1OCC(=O)O [GW501516]	–	–	HDL-cholesterol [2]: raises; insulin levels [2]: decreases; plasma LDL-cholesterol [2]: decreases; triglycerides [2]: decreases
CCCc1c(OCCCSc2nnc(SCC(=O)O)s2)ccc(C(C)=O)c1O [YM-16638]	–	–	plasma lipids [3]: significantly lowers; plasma lipids [4]: acts in a similar manner
